Experimental findings from ChEMBL document CHEMBL3407355, “Understanding the importance of glycosylated threonine and stereospecific action of Drosocin, a Proline rich antimicrobial peptide” (Eur J Med Chem, 2015) are described below.

In brackets after ≈: the same amount, converted by molar mass. Activity calls are given as the source filed them. No cut-off for these calls is given here. Where a SMILES comes first, the peptide text is derived from it. The star is where a group is joined. αGalNAc = CC(=O)N[C@@H]1[C@@H](O)[C@@H](O)[C@@H](CO)O[C@@H]1*; X1 = CC(=O)N[C@H]1[C@H](O)[C@H](O)[C@H](CO)O[C@H]1*

The test system of data set [1] is Escherichia coli. The experiment in a line: Drug uptake in Escherichia coli ATCC 25922 assessed as cellular internalization after 30 mins by FACS analysis. The format is ADME, organism-based. The settings on record: in vivo, 0.5 h.
Data set [2] relates to Escherichia coli. The experiment in a line: Inhibition of RNA biosynthesis in Escherichia coli ATCC 25922 assessed as incorporation of [3H]uridine into RNA at 10 times of MIC concentration by in-vivo transcription assay. The format is functional, organism-based.
Data set [3] relates to Escherichia coli. The data set can be described thus: Inhibition of protein biosynthesis in Escherichia coli ATCC 25922 assessed as incorporation of [35S]methionine into protein at 10 times of MIC concentration by in-vivo translation assay. The class given is functional, organism-based.
Data set [4] concerns Escherichia coli. The experiment in a line: In-vitro inhibition of luciferase reporter gene translation in Escherichia coli S30 extract at 200 ng by transcription/translation assay. The class given is functional.
For data set [5], the system named is Escherichia coli. The experiment in a line: Antimicrobial activity against Escherichia coli ATCC 25922 by broth microdilution assay. The class given is functional.
For data set [6], the system named is Escherichia coli. The data set can be described thus: Antimicrobial activity against Escherichia coli ATCC 11775 by broth microdilution assay. The format is functional.
Data set [7] deals with Escherichia coli. The data set can be described thus: Antimicrobial activity against Escherichia coli ATCC 35218 by broth microdilution assay. The format is functional.
The subject of another data set is Salmonella typhimurium. The experiment in a line: Antimicrobial activity against Salmonella typhimurium ATCC 14028 by broth microdilution assay. The format is functional, Salmonella enterica subsp. enterica serovar Typhimurium. The settings on record: Salmonella enterica.
A further data set relates to Salmonella typhi. The data set can be described thus: Antimicrobial activity against Salmonella typhi Vi+ by broth microdilution assay. The class given is functional, Salmonella enterica subsp. enterica serovar Typhi. The settings on record: Salmonella enterica.
A short description of data set [8]: Binding affinity to Escherichia coli His-tagged recombinant […] binding domain of DnaK by […] Plasmon resonance assay.
In data set [9] the test system is Escherichia coli. The data set can be described thus: Binding affinity to Escherichia coli His-tagged recombinant […] binding domain of DnaK assessed as rate constant by […] Plasmon resonance assay.
The test system of data set [10] is Escherichia coli. The data set can be described thus: Inhibition of protein biosynthesis in Escherichia coli ATCC 25922 assessed as incorporation of [35S]methionine into protein at 2.5 ug/300 ul by in-vivo translation assay. The format is functional, organism-based.

For `CC[C@@H](C)[C@@H](NC(=O)[C@H]1CCCN1C(=O)[C@@H](CCCNC(=N)N)NC(=O)[C@H]1CCCN1C(=O)[C@@H](Cc1cnc[nH]1)NC(=O)[C@H]1CCCN1C(=O)[C@H]1CCCN1C(=O)[C@H]1CCCN1C(=O)[C@@H](CCCNC(=N)N)NC(=O)[C@H]1CCCN1C(=O)[C@H]1CCCN1C(=O)[C@@H](Cc1ccc(O)cc1)NC(=O)[C@H]1CCCN1C(=O)[C@@H](CCCNC(=N)N)NC(=O)[C@H]1CCCN1C(=O)[C@@H](CCCCN)NC(=O)CN)C(=O)N[C@H](CCCNC(=N)N)C(=O)N[C@@H](C(=O)O)C(C)C`, the Drug uptake in the data set with Escherichia coli [1] was 2%. Also, the inhibition entry with Escherichia coli [2] and with Escherichia coli [3] was “inactive” in each case. In the data set with Escherichia coli [4], the inhibition result is “Active”. Moreover, the MIC with Escherichia coli [5], against Escherichia coli [6], in the data set on Escherichia coli [7], in the data set with Salmonella typhimurium and against Salmonella typhi was above 200 µM throughout. Moreover, in data set [8], the dissociation constant (Kd) amounted to 1470 nM. In addition, in the data set on Escherichia coli [9], the Ka was determined as 9.34 ×10⁴ /M/s. Further, the Kdiss in the data set with Escherichia coli [9] is 0.0137 s⁻¹.
For `CC[C@H](C)[C@H](NC(=O)[C@@H]1CCCN1C(=O)[C@H](CCCNC(=N)N)NC(=O)[C@@H]1CCCN1C(=O)[C@H](Cc1cnc[nH]1)NC(=O)[C@@H]1CCCN1C(=O)[C@@H]1CCCN1C(=O)[C@@H]1CCCN1C(=O)[C@H](CCCNC(=N)N)NC(=O)[C@@H]1CCCN1C(=O)[C@@H]1CCCN1C(=O)[C@H](Cc1ccc(O)cc1)NC(=O)[C@@H]1CCCN1C(=O)[C@H](CCCNC(=N)N)NC(=O)[C@@H]1CCCN1C(=O)[C@H](CCCCN)NC(=O)CN)C(=O)N[C@@H](CCCNC(=N)N)C(=O)N[C@H](C(=O)O)C(C)C`, the inhibition result with Escherichia coli [3] and with Escherichia coli [4] was “Active” in each case. For the same molecule, the minimum inhibitory concentration (MIC) amounted to 0.3 µM (≈ 0.664 µg/mL) with Escherichia coli [5]; 0.3 µM (≈ 0.664 µg/mL) in the data set on Escherichia coli [6]; 0.2 µM (≈ 0.443 µg/mL) against Escherichia coli [7]; 0.6 µM (≈ 1.33 µg/mL) in the data set on Salmonella typhimurium; 0.6 µM (≈ 1.33 µg/mL) against Salmonella typhi. The Kd in data set [8] worked out at 1490 nM. For the same molecule, in the data set on Escherichia coli [9], the Ka is 2.45 ×10⁴ /M/s. Also, in the data set on Escherichia coli [9], the Kdiss was 0.0366 s⁻¹.
Consider `CC[C@H](C)[C@H](NC(=O)[C@@H]1CCCN1C(=O)[C@H](CCCNC(=N)N)NC(=O)[C@@H]1CCCN1C(=O)[C@H](Cc1cnc[nH]1)NC(=O)[C@H](CO)NC(=O)[C@H](CO[C@H]1O[C@H](CO)[C@H](O)[C@H](O)[C@H]1NC(C)=O)NC(=O)[C@@H]1CCCN1C(=O)[C@H](CCCNC(=N)N)NC(=O)[C@@H]1CCCN1C(=O)[C@H](CO)NC(=O)[C@H](Cc1ccc(O)cc1)NC(=O)[C@@H]1CCCN1C(=O)[C@H](CCCNC(=N)N)NC(=O)[C@@H]1CCCN1C(=O)[C@H](CCCCN)NC(=O)CN)C(=O)N[C@@H](CCCNC(=N)N)C(=O)N[C@H](C(=O)O)C(C)C` (H-GKPRPYSPRPS(αGalNAc)SHPRPIRV-OH), for which the MIC against Escherichia coli [5] was determined as 1.1 µM (≈ 2.63 µg/mL); in the data set with Escherichia coli [6], 1.6 µM (≈ 3.82 µg/mL); in the data set on Escherichia coli [7], 0.5 µM (≈ 1.19 µg/mL); against Salmonella typhimurium, 6 µM (≈ 14.3 µg/mL); with Salmonella typhi, 5 µM (≈ 11.9 µg/mL).
`CC[C@H](C)[C@H](NC(=O)[C@@H]1CCCN1C(=O)[C@H](CCCNC(=N)N)NC(=O)[C@@H]1CCCN1C(=O)[C@H](Cc1cnc[nH]1)NC(=O)[C@H](CO)NC(=O)[C@@H](NC(=O)[C@@H]1CCCN1C(=O)[C@H](CCCNC(=N)N)NC(=O)[C@@H]1CCCN1C(=O)[C@H](CO)NC(=O)[C@H](Cc1ccc(O)cc1)NC(=O)[C@@H]1CCCN1C(=O)[C@H](CCCNC(=N)N)NC(=O)[C@@H]1CCCN1C(=O)[C@H](CCCCN)NC(=O)CN)[C@@H](C)O[C@@H]1O[C@@H](CO)[C@@H](O)[C@@H](O)[C@@H]1NC(C)=O)C(=O)N[C@@H](CCCNC(=N)N)C(=O)N[C@H](C(=O)O)C(C)C` (H-GKPRPYSPRPT(X1)SHPRPIRV-OH): the Drug uptake in the data set with Escherichia coli [1] was 20%. Also, the MIC in the data set with Escherichia coli [5] stood at 0.3 µM (≈ 0.721 µg/mL); against Escherichia coli [6], 0.5 µM (≈ 1.2 µg/mL); against Escherichia coli [7] it was 0.2 µM (≈ 0.48 µg/mL); against Salmonella typhimurium, 1.8 µM (≈ 4.32 µg/mL); in the data set on Salmonella typhi, 1.3 µM (≈ 3.12 µg/mL). Also, the Kd in data set [8] is 1530 nM. The Ka in the data set on Escherichia coli [9] amounted to 1.94 ×10⁴ /M/s. Moreover, the Kdiss with Escherichia coli [9] stood at 0.0297 s⁻¹.
On to H-GKPRPYSPRPTSHPRPIRV-OH [DROSOCIN], for which the minimal inhibitory concentration (MIC) in the data set with Escherichia coli [5] came to 0.5 µM; in the data set on Escherichia coli [6], 0.7 µM; in the data set with Escherichia coli [7], 0.4 µM; with Salmonella typhimurium, 2 µM; in the data set with Salmonella typhi it was 3 µM.
`CN(C)[C@@H]1C(O)=C(C(N)=O)C(=O)[C@@]2(O)C(O)=C3C(=O)c4c(O)cccc4[C@@](C)(O)[C@H]3C[C@@H]12`: the inhibition entry in the data set on Escherichia coli [10] was “Active”.
Regarding `CC[C@H](C)[C@H](NC(=O)[C@@H]1CCCN1C(=O)[C@H](CCCNC(=N)N)NC(=O)[C@@H]1CCCN1C(=O)[C@H](Cc1cnc[nH]1)NC(=O)[C@H](CO)NC(=O)[C@@H](NC(=O)[C@@H]1CCCN1C(=O)[C@H](CCCNC(=N)N)NC(=O)[C@@H]1CCCN1C(=O)[C@H](CO)NC(=O)[C@H](Cc1ccc(O)cc1)NC(=O)[C@@H]1CCCN1C(=O)[C@H](CCCNC(=N)N)NC(=O)[C@@H]1CCCN1C(=O)[C@H](CCCCN)NC(=O)CN)[C@@H](C)O[C@H]1O[C@H](CO)[C@H](O)[C@H](O)[C@H]1NC(C)=O)C(=O)N[C@@H](CCCNC(=N)N)C(=O)N[C@H](C(=O)O)C(C)C` (H-GKPRPYSPRPT(αGalNAc)SHPRPIRV-OH), the Drug uptake in the data set on Escherichia coli [1] is given as 16%. In addition, the MIC against Escherichia coli [5] amounted to 0.2 µM (≈ 0.48 µg/mL); with Escherichia coli [6], 0.3 µM (≈ 0.721 µg/mL); in the data set on Escherichia coli [7], 0.2 µM (≈ 0.48 µg/mL); in the data set on Salmonella typhimurium, 0.3 µM (≈ 0.721 µg/mL); against Salmonella typhi, 0.3 µM (≈ 0.721 µg/mL). Besides, the Kd in [8] is 1790 nM. Further, the Ka in the data set with Escherichia coli [9] amounted to 2.04 ×10⁴ /M/s. Moreover, the Kdiss in the data set on Escherichia coli [9] stood at 0.0366 s⁻¹.
With H-GKPRPYSPRPSSHPRPIRV-OH, the MIC was found to be 0.4 µM against Escherichia coli [5]; 0.6 µM against Escherichia coli [6]; 0.2 µM in the data set with Escherichia coli [7]; 2 µM in the data set on Salmonella typhimurium; 3 µM in the data set on Salmonella typhi.
